Measured values published in patent US20260207761A1, “USE OF DRUG CONJUGATE IN TREATMENT OF TUMOR DISEASE AND METHOD” (priority 2023, published 2026).
Where two headings read alike, the source gives them in different places.

Key:
[1] = for exposure to toxin molecules: 50 mg/kg, after the last administration
[2] = Trial Example 4: pharmacokinetic study, dose-escalation cohort
[3] = conjugate A 25 mg/kg, female, Day 1
[4] = conjugate A 25 mg/kg, female, Day 43
[5] = conjugate A 25 mg/kg, male, Day 1
[6] = conjugate A 25 mg/kg, male, Day 43
[7] = conjugate A 50 mg/kg, female, Day 1
[8] = conjugate A 50 mg/kg, female, Day 43
[9] = conjugate A 50 mg/kg, male, Day 1
[10] = conjugate A 50 mg/kg, male, Day 43
[11] = conjugate A 75 mg/kg, female, Day 1
[12] = conjugate A 75 mg/kg, female, Day 43
[13] = conjugate A 75 mg/kg, male, Day 1
[14] = conjugate A 75 mg/kg, male, Day 43

In the case of CC[C@@]1(O)C(=O)OCc2c1cc1n(c2=O)Cc2c-1nc1ccccc1c2CCN(C(C)C)S(C)(=O)=O [toxins], the “exposure to toxin molecules” value ([1]; female monkeys) is reported as 5860 ng·h/mL, the “exposure to toxin molecules” value ([1]; male monkeys) is reported as 3850 ng·h/mL and the AUClast of toxins [1, 3] is reported as 1430 ng·h/mL. For the same molecule, the Cmax of toxins [1, 3] was 38.3 ng/mL, the AUClast of toxins [1, 4] was 1860 ng·h/mL and the Cmax of toxins [1, 4] was 65.1 ng/mL. For the same molecule, the AUClast of toxins [1, 5] was 1790 ng·h/mL, the Cmax of toxins [1, 5] was 49.0 ng/mL and the AUClast of toxins [1, 6] was 2570 ng·h/mL. The Cmax of toxins [1, 6] was 64.5 ng/mL, the AUClast of toxins [1, 7] was 3970 ng·h/mL and the Cmax of toxins [1, 7] was 113 ng/mL. The AUClast of toxins [1, 8] was 3850 ng·h/mL, the Cmax of toxins [1, 8] was 127 ng/mL and the AUClast of toxins [1, 9] was 4490 ng·h/mL. The Cmax of toxins [1, 9] was 94.0 ng/mL, the AUClast of toxins [1, 10] was 5860 ng·h/mL and the Cmax of toxins [1, 10] was 146 ng/mL. The AUClast of toxins [1, 11] was 5120 ng·h/mL, the Cmax of toxins [1, 11] was 132 ng/mL and the AUClast of toxins [1, 12] was 4680 ng·h/mL. For the same molecule, the Cmax of toxins [1, 12] was 137 ng/mL, the AUClast of toxins [1, 13] was 5420 ng·h/mL and the Cmax of toxins [1, 13] was 132 ng/mL. The AUClast of toxins [1, 14] was 4080 ng·h/mL, the Cmax of toxins [1, 14] was 110 ng/mL and the “plasma exposure of the free payload, AUC, relative to conjugate A” value ([2]; first 4-week period) was about 5%. For the same molecule, the “plasma exposure of the free payload, Cmax, relative to conjugate A” value ([2]; first 4-week period) was “about 6%” and the half-life ([2]; patients, biweekly dosing regimen) was about 49 h.
